Molecular target: T1, K-Ras protein (Homo sapiens, UniProt P01116, G12V)
T1 construct: in SW620 cells, compound I-a-1 can effectively enhance the degradation of endogenous K-RAS-G12V proteins; endogenous in cells; host or cells: SW-620
Test: K-Ras protein degradation rate by Western blot in SW-620 cells
Type: cell-based
Settings: 10 μM, SW-620 cells, 24 h, Western blot, relative to DMSO control; read-out: Degradation rate of compounds at 10 μM on Ras protein (%)
Description: Inhibitory activity of compounds on K-RAS was evaluated by the degradation rate of protein level of administration group relative to control group (Cell Rep 2014, 7, 871-882).
The specific method was as follows:
1. Cell plating: SW-620 cells in logarithmic growth phase were inoculated into a 24-well plate at 2×10^4/well, and cultured in a 37° C., 5% CO2 incubator.
2. Administering drug to cells: after 24 h of culture, various drug stocks […]; the original solution in the 24-well plate was discarded, to which was added the obtained drug solution, with the DMSO group as the blank control; after the drug solution was added, the 24-well plate was transferred to the 37° C. CO2 incubator to continue the culture.
3. Detection of K-Ras protein level: after 24 h of administration and culture, the liquid in the well was discarded, the cells were routinely collected, and rinsed twice with 1×PBS, a cell lysate was added to extract the total cellular protein, and the protein concentration was determined by BCA method. 30 μg of the protein sample was taken for SDS-polyacrylamide gel electrophoretic transmembrane, the membrane was blocked sequentially, incubated with K-Ras antibody (1:1000) and internal reference antibody β-actin (1:2000) respectively overnight at 4° C., rinsed with TBST for 5 min×3 times, then incubated with the addition of the corresponding horseradish peroxidase-labeled secondary antibody (1:5000) for 1-2 h, and rinsed with TBST for 5 min×3 times. Finally, chemiluminescence image was acquired using Image Lab software.
4. Calculation of single-point K-Ras protein degradation rate: quantitative and calibration analysis of K-Ras and β-actin were conducted using Image-Lab software, and then the intracellular K-Ras degradation rate was calculated according to the following formula: single-point K-Ras protein degradation rate (%)=(control group−administration group)/control group×100%. The drug with degradation rate ≥20% was selected for soft agar experiment.

T1 sequence (P01116 1-188 isoform P01116-2 G12V): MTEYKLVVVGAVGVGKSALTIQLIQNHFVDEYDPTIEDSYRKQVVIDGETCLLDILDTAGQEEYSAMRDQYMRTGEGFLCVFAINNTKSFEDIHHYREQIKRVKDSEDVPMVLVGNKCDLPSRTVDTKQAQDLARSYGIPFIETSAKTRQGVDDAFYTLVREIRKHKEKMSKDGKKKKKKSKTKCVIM

| percent K-Ras protein degradation (single point) at 10 µM | Structure (SMILES) |
| --- | --- |
| 12% | O=S(=O)(NCc1c(F)cccc1Cl)c1c[nH]c(-c2n[nH]c3ncccc23)c1 [III-g-4] |
| 14% | O=S(=O)(Cc1ccccc1)c1c[nH]c(-c2n[nH]c3ncccc23)c1 [III-h-1] |
| 18% | O=S(=O)(Cc1c(Cl)cccc1Cl)c1c[nH]c(-c2n[nH]c3ncccc23)c1 [III-h-3] |
| 41% | O=S(=O)(Cc1c(F)cccc1Cl)c1c[nH]c(-c2n[nH]c3ncccc23)c1 [III-h-4] |
| 16% | O=S(=O)(Cc1ccc(Cl)cc1)c1c[nH]c(-c2n[nH]c3ncccc23)c1 [III-h-5] |
| 10% | O=C(NCc1c(F)cccc1Cl)c1csc(-c2c[nH]c3ccccc23)c1 [IV-a-1] |
| 50% | O=C(Nc1ccccc1)c1csc(-c2c[nH]c3ccccc23)c1 [IV-a-2] |
| 35% | O=C(NC1CCCCC1)c1csc(-c2c[nH]c3ccccc23)c1 [IV-a-3] |
| 30% | O=C(NCc1c(F)cccc1Cl)c1coc(-c2c[nH]c3ccccc23)c1 [IV-c-1] |
| 50% | O=C(Nc1ccccc1)c1coc(-c2c[nH]c3ccccc23)c1 [IV-c-2] |
| 30% | O=C(NCc1c(F)cccc1Cl)c1ccc(-c2c[nH]c3ccccc23)cc1 [IV-e-1] |
| 20% | O=C(Nc1ccccc1)c1ccc(-c2c[nH]c3ccccc23)cc1 [IV-e-2] |
| 40% | O=C(NC1CCCCC1)c1ccc(-c2c[nH]c3ccccc23)cc1 [IV-e-3] |
| 10% | O=C(NCc1c(F)cccc1Cl)c1ccc(-c2c[nH]c3ccccc23)s1 [IV-f-1] |
| 40% | O=C(NCc1c(F)cccc1Cl)c1coc(-c2cnc3ccccn23)c1 [IX-c-1] |
| 40% | O=C(Nc1ccccc1)c1coc(-c2cnc3ccccn23)c1 [IX-c-2] |
| 30% | O=C(NCc1c(F)cccc1Cl)c1cccc(-c2cnc3ccccn23)c1 [IX-d-1] |
| 40% | O=C(NCc1c(F)cccc1Cl)c1ccc(-c2cnc3ccccn23)cc1 [IX-e-1] |
| 50% | O=C(Nc1ccccc1)c1ccc(-c2cnc3ccccn23)cc1 [IX-e-2] |
| 50% | O=C(NCc1c(F)cccc1Cl)c1ccc(-c2cnc3ccccn23)s1 [IX-f-1] |
| 30% | CC(C)(C)n1nc(-c2cc(C(=O)Nc3ccccc3)cs2)c2c(N)ncnc21 [VI-a-2] |
| 30% | CC(C)(C)n1nc(-c2cccc(C(=O)NCc3c(F)cccc3Cl)c2)c2c(N)ncnc21 [VI-d-1] |
| 30% | CC(C)(C)n1nc(-c2cccc(C(=O)Nc3ccccc3)c2)c2c(N)ncnc21 [VI-d-2] |
| 5% | O=C(NCc1c(F)cccc1Cl)c1csc(-c2cnc3cnccn23)c1 [VII-a-1] |
| 60% | O=C(NCc1cccc(C(F)(F)F)c1)c1csc(-c2cnc3cnccn23)c1 [VII-a-2] |

| percent K-Ras protein degradation (single point) at 10 µM | Structure (SMILES) |
| --- | --- |
| 30% | O=C(NCc1cc(C(F)(F)F)ccc1F)c1csc(-c2cnc3cnccn23)c1 [VII-a-3] |
| 20% | O=C(NCc1c(F)cccc1Cl)c1c[nH]c(-c2cnc3cnccn23)c1 [VII-b-1] |
| 20% | O=C(Nc1ccccc1)c1c[nH]c(-c2cnc3cnccn23)c1 [VII-b-2] |
| 10% | O=C(NC1CCCCC1)c1c[nH]c(-c2cnc3cnccn23)c1 [VII-b-3] |
| 30% | O=C(NCc1c(F)cccc1Cl)c1ccc(-c2cnc3cnccn23)cc1 [VII-e-1] |
| 20% | O=C(Nc1ccccc1)c1ccc(-c2cnc3cnccn23)cc1 [VII-e-2] |
| 30% | O=C(NC1CCCCC1)c1ccc(-c2cnc3cnccn23)cc1 [VII-e-3] |
| 25% | O=C(NCc1c(F)cccc1Cl)c1ccc(-c2cnc3cnccn23)s1 [VII-f-1] |
| 30% | O=C(Nc1ccccc1)c1ccc(-c2cnc3cnccn23)s1 [VII-f-2] |
| 20% | O=C(NC1CCCCC1)c1ccc(-c2cnc3cnccn23)s1 [VII-f-3] |
| 40% | O=C(NCc1c(F)cccc1Cl)c1csc(-c2cnc3cccnn23)c1 [VIII-a-1] |
| 60% | O=C(NCc1cccc(C(F)(F)F)c1)c1csc(-c2cnc3cccnn23)c1 [VIII-a-2] |
| 50% | O=C(NCc1cc(C(F)(F)F)ccc1F)c1csc(-c2cnc3cccnn23)c1 [VIII-a-3] |
| 20% | O=C(NCc1c(F)cccc1Cl)c1c[nH]c(-c2cnc3cccnn23)c1 [VIII-b-1] |
| 10% | O=C(Nc1ccccc1)c1c[nH]c(-c2cnc3cccnn23)c1 [VIII-b-2] |
| 2% | O=C(NC1CCCCC1)c1c[nH]c(-c2cnc3cccnn23)c1 [VIII-b-3] |
| 12% | O=C(NCc1c(F)cccc1Cl)c1coc(-c2cnc3cccnn23)c1 [VIII-c-1] |
| 10% | O=C(Nc1ccccc1)c1coc(-c2cnc3cccnn23)c1 [VIII-c-2] |
| 2% | O=C(NCc1c(F)cccc1Cl)c1cccc(-c2cnc3cccnn23)c1 [VIII-d-1] |
| 20% | O=C(NC1CCCCC1)c1ccc(-c2cnc3cccnn23)cc1 [VIII-e-3] |
| 15% | O=C(NC1CCCCC1)c1ccc(-c2cnc3cccnn23)s1 [VIII-f-3] |
| 10% | O=C(NCc1c(F)cccc1Cl)c1coc(-c2nnc3ccccn23)c1 [X-c-1] |
| 10% | O=C(NCc1c(F)cccc1Cl)c1ccc(-c2nnc3ccccn23)cc1 [X-e-1] |
| 20% | O=C(NCc1c(F)cccc1Cl)c1ccc(-c2nnc3ccccn23)s1 [X-f-1] |
